Reference: patent US10407409B2, “6-(5-hydroxy-1H-pyrazol-1-yl)nicotinamide inhibitors of PHD” (Takeda Pharmaceutical Company Limited, priority 2013, dated 2019)

Tests used:
[1] = biological target: PHD2 enzyme (residues 181-417) (Homo sapiens (Human), UniProt Q9GZT9); assay: Inhibition of PHD enzyme (LC/MS peptide hydroxylation assay); type: biochemical; conditions: PHD2 (residues 181-417) 5 nM, 60 min pre-incubation, -log(IC50), IC50 molar
In short: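 PHD2 (5 nM final) preincubated with inhibitor 60 min at RT in 50 mM HEPES, 50 mM KCl, 0.5 mM TCEP, 2 uM FeCl2, 0.1 mg/ml BSA, pH 7.3. Reaction started with biotin-peptide (1 uM), 2-oxoglutarate (2 uM), ascorbate (1 mM), quenched at 60 min; hydroxylated product by LC/MS, reported as pIC50.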

[2] = tested on: HIF1a protein in H9c2 rat cardiomyocytes; assay: Cell-based HIF-alpha stabilization assay (inhibition of PHD in cells); conditions: Rattus norvegicus, H9c2, 24 h, 24 hrs compound incubation, HIF1a protein by ELISA, read-out: Inhibition of PHD in cells (pEC50) (converted)
In short: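 Rat H9c2 cardiomyocytes, cultured 24 h, were treated 24 h with an 11-point serial dilution of compound. HIF1a in whole-cell lysates was quantified by ELISA as % of the maximal desferrioxamine response. EC50 came from curve fitting; EC50pos is the concentration reaching 50% of the desferrioxamine maximum.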

Chain of PHD2 enzyme (residues 181-417) (Q9GZT9 181-417): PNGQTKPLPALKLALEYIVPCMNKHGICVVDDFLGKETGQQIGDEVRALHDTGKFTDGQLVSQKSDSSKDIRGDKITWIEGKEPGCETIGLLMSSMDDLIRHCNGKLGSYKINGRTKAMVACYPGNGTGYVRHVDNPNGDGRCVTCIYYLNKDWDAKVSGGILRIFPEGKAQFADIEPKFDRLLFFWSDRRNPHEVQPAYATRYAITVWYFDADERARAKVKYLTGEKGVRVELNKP

| Compound | PHD Inhibition (pIC50) [1] | EC50 [2] [nM] | IC50 ([1]; read-out: PHD Inhibition (pIC50) (converted)) [nM] |
| --- | --- | --- | --- |
| N#Cc1ccc(-c2cnn(-c3ccc(C(=O)N4CCC[C@@H]4CN4CCCC4)cn3)c2O)cc1 [Example 364, (R)-4-(5-hydroxy-1-(5-(2-(pyrrolidin-1-ylmethyl)pyrrolidine-1-carbonyl)pyridin-2-yl)-1H-pyrazol-4-yl)benzonitrile] | 6.73 | 7760 |  |
| Cc1cc(C#N)ccc1-c1cnn(-c2ccc(C(=O)N3CCC[C@@H]3CN3CCCC3)cn2)c1O [Example 365, (R)-4-(5-hydroxy-1-(5-(2-(pyrrolidin-1-ylmethyl)pyrrolidine-1-carbonyl)pyridin-2-yl)-1H-pyrazol-4-yl)-3-methylbenzonitrile] | 7.80 | 417 |  |
| Cc1cc(C#N)ccc1-c1cnn(-c2ccc(C(=O)N(C)C3CCN(C)C3)cn2)c1O (stereo not drawn) [Example 368, 6-(4-(4-cyano-2-methylphenyl)-5-hydroxy-1H-pyrazol-1-yl)-N-methyl-N-(1-methylpyrrolidin-3-yl)nicotinamide] | 7.89 | 575 |  |
| CCC(CC)N1CCN(C(=O)c2ccc(-n3ncc(-c4ccc(C#N)cc4C)c3O)nc2)CC1 [Example 369, 4-(5-hydroxy-1-(5-(4-(pentan-3-yl)piperazine-1-carbonyl)pyridin-2-yl)-1H-pyrazol-4-yl)-3-methylbenzonitrile] | 7.701 | 1200 |  |
| CCN1CCN(C(=O)c2ccc(-n3ncc(-c4ccc(C#N)cc4C)c3O)nc2)C[C@@H]1C [Example 370, (S)-4-(1-(5-(4-ethyl-3-methylpiperazine-1-carbonyl)pyridin-2-yl)-5-hydroxy-1H-pyrazol-4-yl)-3-methylbenzonitrile] | 8.287 | 562 |  |
| CO[C@H](C)CCNC(=O)c1ccc(-n2ncc(-c3ccc(C#N)cc3C)c2O)nc1 [Example 371, (R)-6-(4-(4-cyano-2-methylphenyl)-5-hydroxy-1H-pyrazol-1-yl)-N-(3-methoxybutyl)nicotinamide] | 8.20 | 832 |  |
| Cc1cc(C#N)ccc1-c1cnn(-c2ccc(C(=O)N3CCN(C)[C@@H](C)C3)cn2)c1O [Example 372, (S)-4-(1-(5-(3,4-dimethylpiperazine-1-carbonyl)pyridin-2-yl)-5-hydroxy-1H-pyrazol-4-yl)-3-methylbenzonitrile] | 8.26 | 832 |  |
| Cc1cc(C#N)ccc1-c1cnn(-c2ccc(C(=O)N3CCN(C4CCC4)CC3)cn2)c1O [Example 373, 4-(1-(5-(4-cyclobutylpiperazine-1-carbonyl)pyridin-2-yl)-5-hydroxy-1H-pyrazol-4-yl)-3-methylbenzonitrile] | 8.00 | 1200 |  |
| Cc1cc(C#N)ccc1-c1cnn(-c2ccc(C(=O)N3CCN(C4CC4)[C@H](C)C3)cn2)c1O [Example 375, (R)-4-(1-(5-(4-cyclopropyl-3-methylpiperazine-1-carbonyl)pyridin-2-yl)-5-hydroxy-1H-pyrazol-4-yl)-3-methylbenzonitrile] | 8.06 | 1000 |  |
| Cc1cc(C#N)ccc1-c1cnn(-c2ccc(C(=O)N3CCC[C@H](N(C)C)C3)cn2)c1O [Example 376, (S)-4-(1-(5-(3-(dimethylamino)piperidine-1-carbonyl)pyridin-2-yl)-5-hydroxy-1H-pyrazol-4-yl)-3-methylbenzonitrile] | 7.61 | 891 |  |
| Cc1cc(C#N)ccc1-c1cnn(-c2ccc(C(=O)N3CCN(C)C(C)(C)C3)cn2)c1O [Example 377, 4-(5-hydroxy-1-(5-(3,3,4-trimethylpiperazine-1-carbonyl)pyridin-2-yl)-1H-pyrazol-4-yl)-3-methylbenzonitrile] | 8.44 | 813 |  |
| CCN1CCN(C(=O)c2ccc(-n3ncc(-c4ccc(C#N)cc4C)c3O)nc2)CC1(C)C [Example 378, 4-(1-(5-(4-ethyl-3,3-dimethylpiperazine-1-carbonyl)pyridin-2-yl)-5-hydroxy-1H-pyrazol-4-yl)-3-methylbenzonitrile] | 8.21 | 1290 |  |
| Cc1cc(C#N)ccc1-c1cnn(-c2ccc(C(=O)N3CCN(C(C)C)[C@H](C)C3)cn2)c1O [Example 379, (R)-4-(5-hydroxy-1-(5-(4-isopropyl-3-methylpiperazine-1-carbonyl)pyridin-2-yl)-1H-pyrazol-4-yl)-3-methylbenzonitrile] | 8.20 | 794 |  |
| CCN(CC)C1CCCN(C(=O)c2ccc(-n3ncc(-c4ccc(C#N)cc4C)c3O)nc2)C1 (stereo not drawn) [Example 380, 4-(1-(5-(3-(diethylamino)piperidine-1-carbonyl)pyridin-2-yl)-5-hydroxy-1H-pyrazol-4-yl)-3-methylbenzonitrile] | 8.17 | 575 |  |
| Cc1cc(C#N)ccc1-c1cnn(-c2ccc(C(=O)N3CCC[C@H](N4CCCC4)C3)cn2)c1O [Example 381, (S)-4-(5-hydroxy-1-(5-(3-(pyrrolidin-1-yl)piperidine-1-carbonyl)pyridin-2-yl)-1H-pyrazol-4-yl)-3-methylbenzonitrile] | 7.94 | 1070 |  |
| CCN(C)[C@@H]1CCCN(C(=O)c2ccc(-n3ncc(-c4ccc(C#N)cc4C)c3O)nc2)C1 [Example 382, (R)-4-(1-(5-(3-(ethyl(methyl)amino)piperidine-1-carbonyl)pyridin-2-yl)-5-hydroxy-1H-pyrazol-4-yl)-3-methylbenzonitrile] | 8.00 | 977 |  |
| Cc1cc(C#N)ccc1-c1cnn(-c2ccc(C(=O)N3CCC[C@@H](N(C)C4CC4)C3)cn2)c1O [Example 383, (R)-4-(1-(5-(3-(cyclopropyl(methyl)amino)piperidine-1-carbonyl)pyridin-2-yl)-5-hydroxy-1H-pyrazol-4-yl)-3-methylbenzonitrile] | 8.28 | 1100 |  |
| CCN(C)[C@H]1CCCN(C(=O)c2ccc(-n3ncc(-c4ccc(C#N)cc4C)c3O)nc2)C1 [Example 384, (S)-4-(1-(5-(3-(ethyl(methyl)amino)piperidine-1-carbonyl)pyridin-2-yl)-5-hydroxy-1H-pyrazol-4-yl)-3-methylbenzonitrile] | 7.93 | 1510 |  |
| Cc1cc(C#N)ccc1-c1cnn(-c2ccc(C(=O)N3CCN(C)C[C@H]3C)cn2)c1O [Example 385, (R)-4-(1-(5-(2,4-dimethylpiperazine-1-carbonyl)pyridin-2-yl)-5-hydroxy-1H-pyrazol-4-yl)-3-methylbenzonitrile] | 8.18 | 955 |  |
| Cc1cc(C#N)ccc1-c1cnn(-c2ccc(C(=O)N3CCC[C@@H](N4CCCC4)C3)cn2)c1O [Example 387, (R)-4-(5-hydroxy-1-(5-(3-(pyrrolidin-1l-yl)piperidine-1-carbonyl)pyridin-2-yl)-1H-pyrazol-4-yl)-3-methylbenzonitrile] | 7.91 | 871 |  |
| CCN1CCN(C(=O)c2ccc(-n3ncc(-c4ccc(C#N)cc4C)c3O)nc2)C[C@H]1C [Example 388, (R)-4-(1-(5-(4-ethyl-3-methylpiperazine-1-carbonyl)pyridin-2-yl)-5-hydroxy-1H-pyrazol-4-yl)-3-methylbenzonitrile] | 8.25 | 513 |  |
| Cc1cc(C#N)ccc1-c1cnn(-c2ccc(C(=O)N3CCN(C4CC4)[C@@H](C)C3)cn2)c1O [Example 389, (S)-4-(1-(5-(4-cyclopropyl-3-methylpiperazine-1-carbonyl)pyridin-2-yl)-5-hydroxy-1H-pyrazol-4-yl)-3-methylbenzonitrile] | 8.20 | 1150 |  |
| Cc1cc(C#N)ccc1-c1cnn(-c2ccc(C(=O)N3CCN(C)C4(CC4)C3)cn2)c1O [Example 390, 4-(5-hydroxy-1-(5-(4-methyl-4,7-diazaspiro[2.5]octane-7-carbonyl)pyridin-2-yl)-1H-pyrazol-4-yl)-3-methylbenzonitrile] | 8.29 | 955 |  |
| Cc1cc(C#N)ccc1-c1cnn(-c2ccc(C(=O)N3CCN(C)[C@H](C)C3)cn2)c1O [Example 392, (R)-4-(1-(5-(3,4-dimethylpiperazine-1-carbonyl)pyridin-2-yl)-5-hydroxy-1H-pyrazol-4-yl)-3-methylbenzonitrile] | 8.20 | 355 |  |
| Cc1cc(C#N)ccc1-c1cnn(-c2ccc(C(=O)N3CCN(C(C)C)[C@@H](C)C3)cn2)c1O [Example 393, (S)-4-(5-hydroxy-1-(5-(4-isopropyl-3-methylpiperazine-1-carbonyl)pyridin-2-yl)-1H-pyrazol-4-yl)-3-methylbenzonitrile] |  | 1450 | 13.8 |
| Cc1cc(C#N)c(F)cc1-c1cnn(-c2ccc(C(=O)N3CC(N(C)C)C3)cn2)c1O [Example 394, 4-(1-(5-(3-(dimethylamino)azetidine-1-carbonyl)pyridin-2-yl)-5-hydroxy-1H-pyrazol-4-yl)-2-fluoro-5-methylbenzonitrile] | 7.88 | 2820 |  |
| CCN1CCN(C(=O)c2ccc(-n3ncc(-c4cc(F)c(C#N)cc4C)c3O)nc2)C[C@H]1C [Example 395, (R)-4-(1-(5-(4-ethyl-3-methylpiperazine-1-carbonyl)pyridin-2-yl)-5-hydroxy-1H-pyrazol-4-yl)-2-fluoro-5-methylbenzonitrile] | 8.48 | 2630 |  |
